Experimental data as given in US10590118B2, “Bicyclic heterocyclic derivatives as bromodomain inhibitors” (Orion Corporation, priority 2014, dated 2020).

Target: T1, Bet bromodomain protein (BRD4) (Homo sapiens, UniProt O60885)
T1 construct: made in house
Experiment: Bet bromodomain TR-FRET assay
Assay type: binding
Settings: 300 nM acetyl histone peptide substrate, results given as Group A/B/C
Procedure: In-Vitro Biochemical Data of bicyclic heterocyclic derivatives in time-resolved fluorescence resonance energy transfer (TR-FRET) assay.
The Bet brommodomain TR-FRET assay has been used to identify compounds that bind to bet bromodomain and prevent its interaction with acetylated histone peptides.
In the assay, optimized concentration of in-house Bet bromodomain protein (BRD4) and 300 nM of acetyl histone peptide substrate were diluted in assay buffer (50 mM HEPES, pH: 7.5, 50 mM NaCl, 500 μM CHAPS) and were added to the positive control and test control wells in a 384 well plate. Substrate control wells have 300 nM of acetyl histone peptide substrate diluted in assay buffer. Buffer blank wells were added with assay buffer. The reaction mixture was allowed for incubation at room temperature for 30 mins. Stock solutions of test compounds at 20 mM DMSO are prepared. Compounds are serially diluted and added to the test wells in 384-well polypropylene plates. The reaction mixture was further incubated for 30 mins at room temperature on a plate shaker. 2 nM of Europium labeled streptavidn and 10 nM of XL-665 labeled antibody diluted in detection buffer (50 mM HEPES, pH: 7.5, 50 mM NaCl, 500 μM CHAPS and 800 mM KF) were added to all the wells excluding the buffer blank wells. The reaction plate was incubated for additional 30 mins at room temperature on plate shaker. The plate was read in Perkin Elmer WALLAC 1420 Multilabel Counter Victor 3 (Ex: 340 nm Em: 615 and 665 nm). The amount of displacement of the peptide was measured as ratio of specific 665 nm energy transfer signal to 615 nm signals. The compounds IC50 was determined by fitting the dose response data to sigmoid curve fitting equation using Graph Pad Prism software V5.

| SMILES | IC50 |
| --- | --- |
| COc1cc2c(cc1-c1c(C)noc1C)OCC(=O)N2C(C)c1ccncc1 (single isomer, unassigned) [Compound 19, 7-(3,5-dimethylisoxazol-4-yl)-6-methoxy-4-(1-(pyridin-4-yl)ethyl)-2H-benzo[b][1,4]oxazin-3(4H)-one] | > 3000 nM |
| COc1cc2c(cc1-c1c(C)noc1C)OCC(=O)N2C(C)c1cccnc1 (single isomer, unassigned) [Compound 25, 7-(3,5-dimethytisoxazol-4-yl)-6-methoxy-4-(1-(pyridin-3-yl)ethyl)-2H-benzo[b][1,4]oxazin-3(4H)-one] | 1000 to 3000 nM |
| COc1cc2c(cc1-c1c(C)noc1C)OCC(=O)N2C(C)c1ccc(Cl)cc1 (single isomer, unassigned) [Compound 33, 4-(1-(4-chlorophenyl)ethyl)-7-(3,5-dimethylisoxazol-4-yl)-6-methoxy-2H-benzo[b][1,4]oxazin-3(4H)-one] | 1000 to 3000 nM |
| COc1cc2c(ccc(=O)n2Cc2ccccn2)cc1-n1c(C)nnc1C [Compound 3, 6-(3,5-dimethyl-4H-1,2,4-triazol-4-yl)-7-methoxy-1-(pyridin-2-ylmethyl)quinolin-2(1H)-one] | > 3000 nM |
| COc1cc2c(cc1-c1c(C)noc1C)OCCN2C(C)c1ccc(Cl)cc1 (stereo not drawn) [Compound 6, 4-(1-(4-chlorophenyl)ethyl)-7-(3,5-dimethylisoxazol-4-yl)-6-methoxy-3,4-dihydro-2H-benzo[b][1,4]oxazine] | > 3000 nM |
| COc1cc2c(cc1-c1c(C)noc1C)OCCN2S(=O)(=O)c1cccc(Cl)c1 [Compound 11, 4-((3-chlorophenyl)sulfonyl)-7-(3,5-dimethylisoxazol-4-yl)-6-methoxy-3,4-dihydro-2H-benzo[b][1,4]oxazine] | 1000 to 3000 nM |
| COc1cc2c(cc1-c1c(C)noc1C)OCCN2S(=O)(=O)c1cccnc1 [Compound 12, 7-(3,5-dimethylisoxazol-4-yl)-6-methoxy-4-(pyridin-3-ylsulfonyl)-3,4-dihydro-2H-benzo[b][1,4]oxazine] | 1000 to 3000 nM |
| COc1cc2c(cc1NS(=O)(=O)c1c(C)noc1C)OCC(=O)N2Cc1ccc(Cl)cc1 [Compound 13, N-(4-(4-chlorobenzyl)-6-methoxy-3-oxo-3,4-dihydro-2H-benzo[b][1,4]oxazin-7-yl)-3,5-dimethylisoxazole-4-sulfonamide] | > 3000 nM |
| COc1cc2c(ccc(=O)n2S(=O)(=O)c2ccc(Cl)cc2)cc1-c1c(C)noc1C [Compound 14, 1-((4-chlorophenyl)sulfonyl)-6-(3,5-dimethylisoxazol-4-yl)-7-methoxyquinolin-2(1H)-one] | > 3000 nM |
| COc1cc2c(ccc(=O)n2C(=O)c2ccc(Cl)cc2)cc1-c1c(C)noc1C [Compound 15, 1-(4-chlorobenzoyl)-6-(3,5-dimethylisoxazol-4-yl)-7-methoxyquinolin-2(1H)-one] | > 3000 nM |
| COc1cc2c(cc1-c1c(C)noc1C)OCCN2Cc1ccccc1N [Compound 16, 2-((7-(3,5-dimethylisoxazol-4-yl)-6-methoxy-2H-benzo[b][1,4]oxazin-4(3H)-yl)methyl)aniline] | ≤ 1000 nM |
| COc1cc2c(cc1-c1c(C)noc1C)OCC(=O)N2Cc1ccncc1 [Compound 17, 7-(3,5-dimethylisoxazol-4-yl)-6-methoxy-4-(pyridin-4-ylmethyl)-2H-benzo[b][1,4]oxazin-3(4H)-one] | ≤ 1000 nM |
| COc1cc2c(cc1-c1c(C)noc1C)OCC(=O)N2Cc1ccc(Cl)cc1 [Compound 18, 4-(4-chlorobenzyl)-7-(3,5-dimethylisoxazol-4-yl)-6-methoxy-2H-benzo[b][1,4]oxazin-3(4H)-one] | ≤ 1000 nM |
| COc1cc2c(cc1-c1c(C)noc1C)OCC(=O)N2Cc1cccnc1 [Compound 21, 7-(3,5-dimethylisoxazol-4-yl)-6-methoxy-4-(pyridin-3-ylmethyl)-2H-benzo[b][1,4]oxazin-3(4H)-one] | ≤ 1000 nM |
| COc1cc2c(cc1-c1c(C)noc1C)OCC(=O)N2Cc1ccccn1 [Compound 22, 7-(3,5-dimethytisoxazol-4-yl)-6-methoxy-4-(pyridin-2-ylmethyl)-2H-benzo[b][1,4]oxazin-3(4H)-one] | ≤ 1000 nM |
| COc1cc2c(cc1-c1c(C)noc1C)OCC(=O)N2CC1CCOCC1 [Compound 23, 7-(3,5-dimethytisoxazol-4-yl)-6-methoxy-4-((tetrahydro-2H-pyran-4-yl)methyl)-2H-benzo[b][1,4]oxazin-3(4H)-one] | ≤ 1000 nM |
| COc1ccc(CN2C(=O)COc3cc(-c4c(C)noc4C)c(OC)cc32)cn1 [Compound 26, 7-(3,5-dimethylisoxazol-4-yl)-6-methoxy-4-((6-methoxypyridin-3-yl)methyl)-2H-benzo[b][1,4]oxazin-3(4H)-one] | ≤ 1000 nM |
| COc1cc2c(cc1-c1c(C)noc1C)OCC(=O)N2Cc1ccc(C#N)cn1 [Compound 27, 6-((7-(3,5-dimethylisoxazol-4-yl)-6-methoxy-3-oxo-2H-benzo[b][1,4]oxazin-4(3H)-yl)methyl)nicotinonitrile] | 1000 to 3000 nM |
| COc1cc2c(cc1-c1c(C)noc1C)OCC(=O)N2Cc1ccc(Cl)cn1 [Compound 28, 4-((5-chloropyridin-2-yl)methyl)-7-(3,5-dimethylisoxazol-4-yl)-6-methoxy-2H-benzo[b][1,4]oxazin-3(4H)-one] | ≤ 1000 nM |
| COc1cc2c(cc1-c1c(C)noc1C)OCC(=O)N2Cc1ccc(F)cn1 [Compound 29, 7-(3,5-dimethylisoxazol-4-yl)-4-((5-fluoropyridin-2-yl)methyl)-6-methoxy-2H-benzo[b][1,4]oxazin-3(4H)-one] | ≤ 1000 nM |

Continued, values first:

| IC50 | SMILES |
| --- | --- |
| ≤ 1000 nM | COc1cc2c(cc1-c1c(C)noc1C)cc(C(O)C(F)(F)F)c(=O)n2Cc1ccccn1 (racemic) [Compound 101, 6-(3,5-dimethylisoxazol-4-yl)-methoxy-1-(pyridin-2-ylmethyl)-3-(2,2,2-trifluoro-1-hydroxyethyl)quinolin-2(1H)-one] |
| ≤ 1000 nM | COc1cc2c(cc1-c1c(C)noc1C)OCC(=O)N2C(C)c1ccncc1 (single isomer, unassigned) [Compound 20, 7-(3,5-dimethylisoxazol-4-yl)-6-methoxy-4-(1-(pyridin-4-yl)ethyl)-2H-benzo[b][1,4]oxazin-3(4H)-one] |
| ≤ 1000 nM | COc1cc2c(cc1-c1c(C)noc1C)OCC(=O)N2C(C)c1cccnc1 (single isomer, unassigned) [Compound 24, 7-(3,5-dimethytisoxazol-4-yl)-6-methoxy-4-(1-(pyridin-3-yl)ethyl)-2H-benzo[b][1,4]oxazin-3(4H)-one] |
| ≤ 1000 nM | COc1cc2c(cc1-c1c(C)noc1C)OCC(=O)N2C(C)c1ccc(Cl)cc1 (single isomer, unassigned) [Compound 34, 4-(1-(4-chlorophenyl)ethyl)-7-(3,5-dimethylisoxazol-4-yl)-6-methoxy-2H-benzo[b][1,4]oxazin-3(4H)-one] |
| ≤ 1000 nM | COc1cc2c(cc1-c1c(C)noc1C)cc(C(O)C(F)(F)F)c(=O)n2Cc1ccccn1 (single isomer, unassigned) [Compound 102, 6-(3,5-dimethylisoxazol-4-yl)-7-methoxy-1-(pyridin-2-ylmethyl)-3-(2,2,2-trifluoro-1-hydroxyethyl)quinolin-2(1H)-one] |
| ≤ 1000 nM | COc1cc2c(cc1-c1c(C)noc1C)OCCN2Cc1ccc(Cl)cc1 [Compound 1, 4-(4-chlorobenzyl)-7-(3,5-dimethylisoxazol-4-yl)-6-methoxy-3,4-dihydro-2H-benzo[b][1,4]oxazine] |
| ≤ 1000 nM | COc1ccc(Cn2c(=O)ccc3cc(-c4c(C)noc4C)c(OC)cc32)nc1 [Compound 2, 6-(3,5-dimethytisoxazol-4-yl)-7-methoxy-1-((5-methoxypyridin-2-yl)methyl)quinolin-2(1H)-one] |
| ≤ 1000 nM | COc1cc2c(cc1-c1c(C)noc1C)ncc(=O)n2Cc1ccc(Cl)cc1 [Compound 4, 1-(4-chlorobenzyl)-6-(3,5-dimethylisoxazol-4-yl)-7-methoxyquinoxalin-2(1H)-one] |
| ≤ 1000 nM | COc1cc2c(cc1-c1c(C)noc1C)CCC(=O)N2Cc1ccc(Cl)cc1 [Compound 5, 1-(4-chlorobenzyl)-6-(3,5-dimethyisoxazol-4-yl)-7-methoxy-3,4-dihydroquinolin-2(1H)-one] |
| ≤ 1000 nM | COc1cc2c(cc1-c1c(C)noc1C)OCCN2C(C)c1cccnc1 (stereo not drawn) [Compound 7, 7-(3,5-dimethylisoxazol-4-yl)-6-methoxy-4-(1-(pyridin-3-yl)ethyl)-3,4-dihydro-2H-benzo[b][1,4]oxazine] |
| ≤ 1000 nM | COc1cc2c(ccc(=O)n2Cc2cnccn2)cc1-c1c(C)noc1C [Compound 8, 6-(3,5-dimethylisoxazol-4-yl)-7-methoxy-1-(pyrazin-3-ylmethyl)quinolin-2(1H)-one] |
| ≤ 1000 nM | COc1cc2c(ccc(=O)n2Cc2ncccc2F)cc1-c1c(C)noc1C [Compound 9, 6-(3,5-dimethylisoxazol-4-yl)-1-((3-fluoropyridin-2-yl)methyl)-7-methoxyquinolin-2(1H)-one] |
| ≤ 1000 nM | COc1cc2c(cc1-c1c(C)noc1C)CCC(=O)N2Cc1ccccn1 [Compound 10, 6-(3,5-dimethylisoxazol-4-yl)-7-methoxy-1-(pyridin-2-ylmethyl)-3,4-dihydroquinolin-2(1H)-one] |
